10 compounds from ChEMBL document CHEMBL4610045, “Selective acetylcholinesterase inhibitors derived from muscle relaxant dantrolene” (Bioorg Med Chem Lett, 2020) can be followed below.

The target of data set [1] is T1, Acetylcholinesterase (Homo sapiens, UniProt P22303). Nature of the data set: Inhibition of AChE (unknown origin) at 1 uM using acetylthiocholine iodide as substrate by Ellman's method relative to control.
Data set [2] has as its target T2, BuChE (butyrylcholinesterase) (Homo sapiens, UniProt P06276). The experiment in a line: (§1) Inhibition of BuChE (unknown origin) at 1 uM relative to control.
In data set [3] the target is T1, Acetylcholinesterase. The experiment in a line: Inhibition of AChE (unknown origin) using acetylthiocholine iodide as substrate by Ellman's method. (In general: DTNB colorimetry detects thiols as they appear.)
The target of data set [4] is T3, Cholinesterase (Homo sapiens, UniProt P06276). Described as §1. The following applies: 1 µM.
Data set [5] concerns the target T3, Cholinesterase. Nature of the data set: Inhibition of BuChE (unknown origin).
For data set [6], the target named is T1, Acetylcholinesterase. Nature of the data set: Non-competitive inhibition of AChE (unknown origin) at 100 to 200 nM using acetylthiocholine as substrate by Ellman's method based Lineweaver-Burk plot analysis.
The species entered for a further data set is Homo sapiens. The experiment in a line: Selectivity index, ratio of IC50 for BuChE (unknown origin) to IC50 for AChE (unknown origin) using acetylthiocholine iodide as substrate.
Data set [7] deals with T2, BuChE (butyrylcholinesterase). Nature of the data set: Inhibition of BuChE (unknown origin) at 20 nM relative to control.

Each structure is given as a SMILES string. Structures can show the parent of a compound that is named as a salt. Active and inactive are the calls of the source. No cut-off for these calls is given here.

T3 sequence (P06276 whole entry): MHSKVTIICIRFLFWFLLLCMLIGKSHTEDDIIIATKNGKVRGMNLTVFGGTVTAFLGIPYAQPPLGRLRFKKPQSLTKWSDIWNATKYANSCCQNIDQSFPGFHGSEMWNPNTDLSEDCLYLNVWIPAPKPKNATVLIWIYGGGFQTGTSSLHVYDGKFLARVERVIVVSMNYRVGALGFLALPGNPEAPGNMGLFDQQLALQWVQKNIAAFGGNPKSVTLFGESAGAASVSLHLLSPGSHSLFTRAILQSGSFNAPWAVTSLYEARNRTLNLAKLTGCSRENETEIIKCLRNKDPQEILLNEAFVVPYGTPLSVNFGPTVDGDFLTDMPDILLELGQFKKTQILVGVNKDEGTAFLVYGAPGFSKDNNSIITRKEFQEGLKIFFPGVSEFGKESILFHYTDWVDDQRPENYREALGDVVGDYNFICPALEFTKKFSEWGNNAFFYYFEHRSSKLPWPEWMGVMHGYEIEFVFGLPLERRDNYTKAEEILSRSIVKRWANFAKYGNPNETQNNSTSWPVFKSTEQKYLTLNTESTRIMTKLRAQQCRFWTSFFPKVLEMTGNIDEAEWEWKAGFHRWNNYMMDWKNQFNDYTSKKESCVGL
T2 sequence (P06276 whole entry): as above
T1 sequence (P22303 whole entry): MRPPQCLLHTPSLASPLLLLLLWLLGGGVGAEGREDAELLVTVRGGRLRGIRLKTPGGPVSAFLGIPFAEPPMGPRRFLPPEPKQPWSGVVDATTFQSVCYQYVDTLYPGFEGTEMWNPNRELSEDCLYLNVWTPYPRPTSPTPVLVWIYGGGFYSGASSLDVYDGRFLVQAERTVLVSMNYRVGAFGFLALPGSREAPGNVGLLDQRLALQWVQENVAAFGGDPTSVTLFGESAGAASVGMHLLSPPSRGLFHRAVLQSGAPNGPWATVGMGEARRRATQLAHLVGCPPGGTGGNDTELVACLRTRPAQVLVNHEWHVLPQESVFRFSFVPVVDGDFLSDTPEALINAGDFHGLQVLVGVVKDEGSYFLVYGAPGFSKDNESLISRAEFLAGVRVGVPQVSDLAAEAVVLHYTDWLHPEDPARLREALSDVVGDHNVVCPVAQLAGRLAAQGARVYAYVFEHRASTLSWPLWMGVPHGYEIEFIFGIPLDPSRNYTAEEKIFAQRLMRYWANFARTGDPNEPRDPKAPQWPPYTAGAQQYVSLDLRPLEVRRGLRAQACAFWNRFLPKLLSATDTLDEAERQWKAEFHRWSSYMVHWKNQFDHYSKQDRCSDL

`O=C1CN(/N=C/c2ccc(-c3ccc([N+](=O)[O-])cc3)o2)C(=O)N1`: the inhibition – broadly, the relative decrease from the control value, in per cent – at Acetylcholinesterase [1] was “inactive”.

As to `COc1ccccc1-c1ccc(/C=N/N2CC(=O)N(CCC3CCN(Cc4ccccc4)CC3)C2=O)o1`, at 1 µM the inhibition in data set [2] was 1.6%. For the same compound, it took 90.4 nM to reach half-maximal inhibition on Acetylcholinesterase [3] (IC50).

In the case of `O=C1CN(/N=C/c2ccc(-c3ccc([N+](=O)[O-])cc3)o2)C(=O)N1CCN1CCN(Cc2ccccc2)CC1`, the “inhibition (INH)” value against Cholinesterase [4] is given as “Not Active”. Further, the IC50 (in general, the midpoint of a concentration-inhibition curve) on Acetylcholinesterase [3] is 201 nM. Also, the inhibition against Acetylcholinesterase [1] came out at 67.9%.

For the compound `O=C1CN(/N=C/c2ccc(-c3ccc([N+](=O)[O-])cc3)o2)C(=O)N1CCC1CCN(Cc2ccccc2)CC1`, the “inhibition (INH)” value against Cholinesterase [4] is “Not Active”. The IC50 against Acetylcholinesterase [3] turned out to be 46.4 nM. At Acetylcholinesterase [1], this compound yielded an inhibition of 91.3%.

Regarding `O=C1CN(/N=C/c2ccc(-c3cccc([N+](=O)[O-])c3)o2)C(=O)N1CCC1CCN(Cc2ccccc2)CC1`, on Cholinesterase [4], the “inhibition (INH)” value is recorded as “Not Active”. Moreover, the IC50 on Acetylcholinesterase [3] turned out to be 290 nM.

Turning to `O=C1CN(/N=C/c2ccc(-c3ccccc3[N+](=O)[O-])o2)C(=O)N1CCC1CCN(Cc2ccccc2)CC1`, the IC50 came out at 4.47 µM at Cholinesterase [5] and 34.2 nM against Acetylcholinesterase [3]. In addition, in data set [2], 1 µM produced 14.6% inhibition. Besides, the inhibition entry at Acetylcholinesterase [6] is “Active”. Besides, the Ratio IC50 in the data set filed under Homo sapiens was determined as 130.

In turn, `Nc1c2c(nc3ccccc13)CCCC2` [TACRINE HYDROCHLORIDE] showed an inhibition at 0.02 µM in data set [7] of 64.5%.

For the compound `O=C1CN(/N=C/c2ccc(-c3ccc([N+](=O)[O-])cc3)o2)C(=O)N1CC1CCN(Cc2ccccc2)CC1`, at Acetylcholinesterase [1], the inhibition result was “inactive”.

With `COc1ccc(-c2ccc(/C=N/N3CC(=O)N(CCC4CCN(Cc5ccccc5)CC4)C3=O)o2)cc1`, the inhibition at 1 µM in data set [2] was 4.6%. On Acetylcholinesterase [3], this compound came in with an IC50 of 108 nM.

With `COc1cccc(-c2ccc(/C=N/N3CC(=O)N(CCC4CCN(Cc5ccccc5)CC4)C3=O)o2)c1`, in data set [2], the inhibition at 1 µM is 3.8%. The compound also came in with an IC50 against Acetylcholinesterase [3] of 47 nM.
